# Values of other authors as cited in patent US20070026077A1 (priority 2003, published 2007).
# Legend:
# [1] = test system: small-cell lung carcinoma; conditions: patients with small-cell lung carcinoma
# [2] = white crystalline light powder
smiles,measurement,setting,value
CC(=O)CC(c1ccccc1)c1c(O)c2ccccc2oc1=O (stereo not shown) [warfarin],survival time,[1],prolongation of survival time
same,tumor disease progression,[1],statistically significant retardation of tumor disease progression
same,bound to plasmatic proteins,plasmatic proteins,About 97%
"CC(=O)CC(c1ccccc1)c1c([O-])c2ccccc2oc1=O.[Na+] (stereo not drawn) [warfarin sodium salt, sodium salt of 3-(α-acetonylbenzyl)-4-hydroxy-coumarin]",hygroscopicity,[2],hygroscopic
